# Measurements from ChEMBL document CHEMBL1629620 (Antimicrob Agents Chemother, 2009).
# Tests used:
# Vaccinia virus [1] = test: Antiviral activity against Vaccinia virus Copenhagen infected in HFF assessed as reduction of plaque formation after 3 days; type: functional, organism-based; conditions: Orthopoxvirus vaccinia, 72 h
# [2] = Cytotoxicity against HFF after 7 days by neutral red uptake assay; type: cell-based; conditions: human, HFF cells
# Cowpox virus [3] = test: Antiviral activity against Cowpox virus Brighton infected in HFF assessed as reduction of plaque formation after 3 days; type: functional, organism-based; conditions: 72 h
# Vaccinia virus [4] = test: Ratio of compound EC50 to cidofovir EC50 for Vaccinia virus WR; type: functional, Orthopoxvirus vaccinia
# Cowpox virus [5] = test: Ratio of compound EC50 to cidofovir EC50 for Cowpox virus Brighton; type: functional
# Vaccinia virus [6] = test: Ratio of compound EC50 to cidofovir EC50 for Vaccinia virus Copenhagen; type: functional, Orthopoxvirus vaccinia
# HFF = test: Antiproliferative activity against HFF after 3 days by coulter counter assay; type: cell-based; conditions: Homo sapiens, 72 h
# Vaccinia virus [7] = test: Antiviral activity against Vaccinia virus WR infected in HFF assessed as inhibition of DNA synthesis after 24 hrs by PCR analysis; type: functional, organism-based; conditions: Orthopoxvirus vaccinia
# Vaccinia virus [8] = test: Antiviral activity against Vaccinia virus WR infected in HFF assessed as reduction of plaque formation after 3 days; type: functional, organism-based; conditions: Orthopoxvirus vaccinia, 72 h
# Cowpox virus [9] = test: Antiviral activity against Cowpox virus Brighton infected in BALB/c mouse assessed as uncured animal at 15 mg/kg, ip qd for 5 days administered 4 days after infection relative to control; type: functional; conditions: route intraperitoneal
# Cowpox virus [10] = test: Antiviral activity against Cowpox virus Brighton infected in BALB/c mouse assessed as uncured animal at 15 mg/kg, ip qd for 5 days administered 8 days after infection relative to control; type: functional; conditions: route intraperitoneal
# Cowpox virus [11] = test: Antiviral activity against Cowpox virus Brighton infected in BALB/c mouse assessed as uncured animal at 15 mg/kg, ip qd for 5 days administered 24 hrs after infection relative to control; type: functional; conditions: route intraperitoneal
# Cowpox virus [12] = test: Antiviral activity against Cowpox virus Brighton infected in BALB/c mouse assessed as day of death at 15 mg/kg, ip qd for 5 days administered 8 days after infection; type: functional; conditions: route intraperitoneal
# Cowpox virus [13] = test: Antiviral activity against Cowpox virus Brighton infected in BALB/c mouse assessed as uncured animal at 15 mg/kg, ip qd for 5 days administered 2 days after infection relative to control; type: functional; conditions: route intraperitoneal
# Cowpox virus [14] = test: Antiviral activity against Cowpox virus Brighton infected in BALB/c mouse assessed as day of death at 15 mg/kg, ip qd for 5 days administered 5 days after infection; type: functional; conditions: route intraperitoneal
# Cowpox virus [15] = test: Antiviral activity against Cowpox virus Brighton infected in BALB/c mouse assessed as uncured animal at 15 mg/kg, ip qd for 5 days administered 3 days after infection relative to control; type: functional; conditions: route intraperitoneal
# Cowpox virus [16] = test: Antiviral activity against Cowpox virus Brighton infected in BALB/c mouse assessed as uncured animal at 15 mg/kg, ip qd for 5 days administered 5 days after infection relative to control; type: functional; conditions: route intraperitoneal
# Vaccinia virus [17] = test: Antiviral activity against Vaccinia virus WR infected in BALB/c mouse assessed as uncured animal at 15 mg/kg, ip qd for 5 days administered 24 hrs after infection relative to control; type: functional, Orthopoxvirus vaccinia; conditions: route intraperitoneal
# Vaccinia virus [18] = test: Antiviral activity against Vaccinia virus WR infected in BALB/c mouse assessed as uncured animal at 5 mg/kg, ip bid for 5 days administered 24 hrs after infection relative to control; type: functional, Orthopoxvirus vaccinia; conditions: route intraperitoneal
# Vaccinia virus [19] = test: Antiviral activity against Vaccinia virus WR infected in BALB/c mouse assessed as day of death at 15 mg/kg, ip bid for 5 days administered 24 hrs after infection; type: functional, Orthopoxvirus vaccinia; conditions: route intraperitoneal
# Cowpox virus [20] = test: Antiviral activity against Cowpox virus Brighton infected in BALB/c mouse assessed as day of death at 5 mg/kg, po bid for 5 days administered 8 days after infection; type: functional
# Cowpox virus [21] = test: Antiviral activity against Cowpox virus Brighton infected in BALB/c mouse assessed as day of death at 1.5 mg/kg, po bid for 5 days administered 3 days after infection; type: functional
# Cowpox virus [22] = test: Antiviral activity against Cowpox virus Brighton infected in BALB/c mouse assessed as uncured animal at 5 mg/kg, po bid for 5 days administered 8 days after infection relative to control; type: functional
# Cowpox virus [23] = test: Antiviral activity against Cowpox virus Brighton infected in BALB/c mouse assessed as uncured animal at 5 mg/kg, po bid for 5 days administered 3 days after infection relative to control; type: functional
# Cowpox virus [24] = test: Antiviral activity against Cowpox virus Brighton infected in BALB/c mouse assessed as uncured animal at 15 mg/kg, po bid for 5 days administered 2 days after infection relative to control; type: functional
# Cowpox virus [25] = test: Antiviral activity against Cowpox virus Brighton infected in BALB/c mouse assessed as uncured animal at 5 mg/kg, po bid for 5 days administered 5 days after infection relative to control; type: functional
# Cowpox virus [26] = test: Antiviral activity against Cowpox virus Brighton infected in BALB/c mouse assessed as uncured animal at 15 mg/kg, po bid for 5 days administered 3 days after infection relative to control; type: functional
# Cowpox virus [27] = test: Antiviral activity against Cowpox virus Brighton infected in BALB/c mouse assessed as day of death at 15 mg/kg, po bid for 5 days administered 3 days after infection; type: functional
# Cowpox virus [28] = test: Antiviral activity against Cowpox virus Brighton infected in BALB/c mouse assessed as day of death at 5 mg/kg, po bid for 5 days administered 4 days after infection; type: functional
# Cowpox virus [29] = test: Antiviral activity against Cowpox virus Brighton infected in BALB/c mouse assessed as uncured animal at 5 mg/kg, po bid for 5 days administered 2 days after infection relative to control; type: functional
# Cowpox virus [30] = test: Antiviral activity against Cowpox virus Brighton infected in BALB/c mouse assessed as day of death at 5 mg/kg, po bid for 5 days administered 2 days after infection; type: functional
# Cowpox virus [31] = test: Antiviral activity against Cowpox virus Brighton infected in BALB/c mouse assessed as uncured animal at 15 mg/kg, po bid for 5 days administered 24 hrs after infection relative to control; type: functional
# Cowpox virus [32] = test: Antiviral activity against Cowpox virus Brighton infected in BALB/c mouse assessed as uncured animal at 1.5 mg/kg, ip bid for 5 days administered 24 hrs after infection relative to control; type: functional; conditions: route intraperitoneal
# Cowpox virus [33] = test: Antiviral activity against Cowpox virus Brighton infected in BALB/c mouse assessed as uncured animal at 5 mg/kg, po bid for 5 days administered 4 days after infection relative to control; type: functional
# Cowpox virus [34] = test: Antiviral activity against Cowpox virus Brighton infected in BALB/c mouse assessed as uncured animal at 5 mg/kg, ip bid for 5 days administered 24 hrs after infection relative to control; type: functional; conditions: route intraperitoneal
# Cowpox virus [35] = test: Antiviral activity against Cowpox virus Brighton infected in BALB/c mouse assessed as uncured animal at 1.5 mg/kg, po bid for 5 days administered 3 days after infection relative to control; type: functional
# Vaccinia virus [36] = test: Antiviral activity against Vaccinia virus WR infected in BALB/c mouse assessed as uncured animal at 50 mg/kg, ip bid for 5 days administered 24 hrs after infection relative to control; type: functional, Orthopoxvirus vaccinia; conditions: route intraperitoneal
# Cowpox virus [37] = test: Antiviral activity against Cowpox virus Brighton infected in BALB/c mouse assessed as uncured animal at 1.5 mg/kg, po bid for 5 days administered 24 hrs after infection relative to control; type: functional
# Cowpox virus [38] = test: Antiviral activity against Cowpox virus Brighton infected in BALB/c mouse assessed as uncured animal at 1.5 mg/kg, po bid for 5 days administered 2 days after infection relative to control; type: functional
# Vaccinia virus [39] = test: Antiviral activity against Vaccinia virus WR infected in BALB/c mouse assessed as uncured animal at 15 mg/kg, ip bid for 5 days administered 24 hrs after infection relative to control; type: functional, Orthopoxvirus vaccinia; conditions: route intraperitoneal
# Cowpox virus [40] = test: Antiviral activity against Cowpox virus Brighton infected in BALB/c mouse assessed as uncured animal at 5 mg/kg, po bid for 5 days administered 24 hrs after infection relative to control; type: functional
# Cowpox virus [41] = test: Antiviral activity against Cowpox virus Brighton infected in BALB/c mouse assessed as day of death at 15 mg/kg, po bid for 5 days administered 2 days after infection; type: functional
# Cowpox virus [42] = test: Antiviral activity against Cowpox virus Brighton infected in BALB/c mouse assessed as day of death at 5 mg/kg, po bid for 5 days administered 5 days after infection; type: functional
smiles,measurement,setting,value
Nc1ccn([C@@H]2S[C@H](CO)[C@@H](O)[C@@H]2O)c(=O)n1 [THIARABINE],EC50,Vaccinia virus [1],300 nM
same,CC50 at 168 h,[2],> 88000 nM
same,EC50,Cowpox virus [3],1600 nM
same,Ratio EC50,Vaccinia virus [4],20
same,Ratio EC50,Cowpox virus [5],20
same,Ratio EC50,Vaccinia virus [6],20
same,IC50,HFF,1000 nM
Nc1nc(=O)n([C@@H]2S[C@H](CO)[C@@H](O)[C@@H]2O)cc1F,EC50,Vaccinia virus [1],100 nM
same,CC50 at 168 h,[2],> 100000 nM
same,EC50,Cowpox virus [3],400 nM
same,Ratio EC50,Vaccinia virus [4],20
same,Ratio EC50,Cowpox virus [5],20
same,Ratio EC50,Vaccinia virus [6],20
same,IC50,HFF,< 30 nM
CC(=O)OC[C@H]1S[C@@H](n2cc(I)c(=O)[nH]c2=O)C[C@@H]1OC(C)=O,EC50,Vaccinia virus [1],900 nM
same,CC50 at 168 h,[2],> 100000 nM
same,EC50,Cowpox virus [3],330 nM
same,Ratio EC50,Vaccinia virus [4],20
same,Ratio EC50,Cowpox virus [5],20
same,Ratio EC50,Vaccinia virus [6],20
same,IC50,HFF,26000 nM
O=C(NN1C(=O)[C@@H]2[C@@H]3C=C[C@@H]([C@H]4C[C@@H]34)[C@@H]2C1=O)c1ccc(C(F)(F)F)cc1 [TECOVIRIMAT],EC50,Vaccinia virus [7],> 100000 nM
same,EC50,Vaccinia virus [8],70 nM
Cc1cn([C@H]2C[C@H](O)[C@@H](CO)S2)c(=O)[nH]c1=O [4'-THIOTHYMIDINE],EC50,Vaccinia virus [1],30 nM
same,CC50 at 168 h,[2],> 100000 nM
same,EC50,Cowpox virus [3],20 nM
same,Ratio EC50,Vaccinia virus [4],20
same,Ratio EC50,Cowpox virus [5],20
same,Ratio EC50,Vaccinia virus [6],20
same,IC50,HFF,< 30 nM
O=c1[nH]c(=O)n([C@H]2C[C@H](O)[C@@H](CO)S2)cc1Br,EC50,Vaccinia virus [1],90 nM
same,CC50 at 168 h,[2],> 100000 nM
same,EC50,Cowpox virus [3],50 nM
same,Ratio EC50,Vaccinia virus [4],20
same,Ratio EC50,Cowpox virus [5],20
same,Ratio EC50,Vaccinia virus [6],20
same,IC50,HFF,200 nM
O=c1[nH]c(=O)n([C@H]2C[C@H](O)[C@@H](CO)S2)cc1C(F)(F)F,EC50,Vaccinia virus [1],100 nM
same,CC50 at 168 h,[2],> 100000 nM
same,EC50,Cowpox virus [3],80 nM
same,Ratio EC50,Vaccinia virus [4],20
same,Ratio EC50,Cowpox virus [5],20
same,Ratio EC50,Vaccinia virus [6],20
same,IC50,HFF,140 nM
Nc1ccn(C[C@@H](CO)OCP(=O)(O)O)c(=O)n1.O.O [CIDOFOVIR],Activity,Cowpox virus [9],0%
same,EC50,Vaccinia virus [1],19000 nM
same,CC50 at 168 h,[2],> 317000 nM
same,Activity,Cowpox virus [10],27%
same,EC50,Vaccinia virus [8],10000 nM
same,Activity,Cowpox virus [11],0%
same,Activity,Cowpox virus [12],12 days
same,Activity,Cowpox virus [13],0%
same,Activity,Cowpox virus [14],10.5 days
same,Activity,Cowpox virus [15],0%
same,IC50,HFF,1900 nM
same,Activity,Cowpox virus [16],80%
same,Activity,Vaccinia virus [17],0%
O=c1[nH]c(=O)n([C@H]2C[C@H](O)[C@@H](CO)O2)cc1I [IDOXURIDINE],EC50,Vaccinia virus [7],17000 nM
same,EC50,Vaccinia virus [8],2800 nM
O=c1[nH]c(=O)n([C@H]2C[C@H](O)[C@@H](CO)S2)cc1I,Activity,Vaccinia virus [18],0%
same,EC50,Vaccinia virus [1],500 nM
same,Activity,Vaccinia virus [19],11%
same,CC50 at 168 h,[2],> 100000 nM
same,EC50,Vaccinia virus [7],600 nM
same,Activity,Cowpox virus [20],9.7 days
same,EC50,Vaccinia virus [8],40 nM
same,Activity,Cowpox virus [21],14 days
same,Activity,Cowpox virus [11],0%
same,Activity,Cowpox virus [22],100%
same,Activity,Cowpox virus [23],0%
same,Activity,Cowpox virus [24],7%
same,Activity,Cowpox virus [25],87%
same,Activity,Cowpox virus [26],7%
same,Activity,Cowpox virus [27],14%
same,Activity,Cowpox virus [28],13.3 days
same,Activity,Cowpox virus [29],13%
same,Activity,Cowpox virus [30],16 days
same,Activity,Cowpox virus [31],0%
same,Activity,Cowpox virus [32],0%
same,Activity,Cowpox virus [33],27%
same,Activity,Cowpox virus [34],0%
same,IC50,HFF,3000 nM
same,Activity,Cowpox virus [35],13%
same,Activity,Vaccinia virus [36],0%
same,Activity,Cowpox virus [37],0%
same,Activity,Cowpox virus [38],0%
same,Activity,Vaccinia virus [39],7%
same,Activity,Cowpox virus [40],0%
same,Activity,Cowpox virus [41],18%
same,Activity,Cowpox virus [42],9.8 days
